# Assay results published in PMC7125515 (Bioorganic & Medicinal Chemistry, 2011).
# Entries after “also recorded” stand apart in the source; their conditions may differ.
# Experiments:
# [1] = test system: herpes- and poxviruses; experiment: organism not typed; format: cell-based; details: for Selectivity index (ratio CC50:EC50), HCMV / Selectivity index (ratio CC50:EC50), HSV / Selectivity index (ratio CC50:EC50), VZV: CC50 in HEL; for Selectivity index (ratio CC50:EC50), VZV: different VZV strains; for Activity against herpes- and poxviruses (in words): DNA viruses: VACV, HSV-1, HSV-2, TK- HSV-1, VZV; for Selectivity index (ratio CC50:EC50), HCMV / Activity against herpes- and poxviruses (in words): HCMV
# [2] = test system: Vaccinia virus Lederle strain; format: cell-based
# [3] = biological target: hypoxanthine-guanine-xanthine phosphoribosyltransferase (HGXPRT); details: read-out: Ki, HGXPRT; Plasmodium falciparum enzyme; cited from earlier work
structure (smiles),measurement,setting,value
"Nc1ccn(C[C@@H](CO)OCP(=O)(O)O)c(=O)n1.O.O [Cidofovir, reference compound]","Selectivity index (ratio CC50:EC50), HCMV",[1],195–282
same,"Selectivity index (ratio CC50:EC50), HSV",[1],322–363
same,"Selectivity index (ratio CC50:EC50), VZV",[1],880–2540
"CC(CP(=O)(O)O)OCCn1cnc2c(N)ncnc21 (centres unmarked) [Compound 9a, 9-[2-(1-Phosphonopropan-2-yloxy)ethyl]adenine]","Selectivity index (ratio CC50:EC50), HCMV",[1],14–15
same,"Selectivity index (ratio CC50:EC50), HSV",[1],6–10
same,"Selectivity index (ratio CC50:EC50), VZV",[1],120–190
same,EC50,[1]; read-out: EC50 values against different human herpesviruses (range),70 to 2300 nM
same,"Selectivity index (ratio CC50:EC50), vaccinia virus",[2],< 1
"Nc1ncnc2c1ncn2CCOC(COCc1ccccc1)CP(=O)(O)O (centres unmarked) [Compound 9d, 9-[2-(3-Benzyloxy-1-phosphonopropan-2-yloxy)ethyl]adenine]",Activity against herpes- and poxviruses (in words),[1],inactive
"Nc1ncnc2c1ncn2CCOC(CO)CP(=O)(O)O (centres unmarked) [Compound 9e, 9-[2-(3-Hydroxy-1-phosphonopropan-2-yloxy)ethyl]adenine]",Activity against herpes- and poxviruses (in words),[1],inactive; also recorded: annihilated the anti-DNA virus activity
"CC(CP(=O)(O)O)OCCn1cnc2c(N)nc(N)nc21 (centres unmarked) [Compound 14, 9-[2-(1-Phosphonopropan-2-yloxy)ethyl]diaminopurine]",Activity against herpes- and poxviruses (in words),[1],inactive
"Cc1cn(CCOC(CO)CP(=O)(O)O)c(=O)[nH]c1=O (centres unmarked) [Compound 15e, 9-[2-(3-Hydroxy-1-phosphonopropan-2-yloxy)ethyl]thymine]",Activity against herpes- and poxviruses (in words),[1],inactive
Nc1nc2c(ncn2CCOCCP(=O)(O)O)c(=O)[nH]1 [PEEG],Ki,[3],100 nM
O=c1[nH]cnc2c1ncn2CCOCCP(=O)(O)O [PEEHx],Ki,[3],300 nM
